Laboratory results taken from US6967196B1, “Sulfonamide compounds and uses thereof” (Bristol-Myers Squibb Company, priority 1999, dated 2005).
Counter-ions that a name gives are not always drawn. Like-named read-outs stand apart in the source and are kept apart here.

Tested on: amyloid β production in transfected H4 (human neuroglioma) cells stably expressing APP constructs
Assay: In vitro cell-based assay of inhibitors of amyloid β production (ELISA)
Details: amyloid β in medium by ELISA, read-out: ACTIVITY (IC50, inhibition of amyloid β production)
Outline: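 Test agents are screened at 10-100 μM for about 16 hours on cells stably expressing wild-type or variant APP. Secreted Aβ is measured by ELISA and compared with control-treated cells.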

[1] = transfected H4 cells stably expressing APP, approximately 16 hours incubation, Table B
[2] = transfected H4 cells stably expressing APP, approx. 16 h incubation
[3] = transfected H4 cells stably expressing APP, approximately 16 hours incubation
[4] = transfected H4 cells stably expressing APP constructs, approximately 16 hours incubation
[5] = Homo sapiens, 16 h, transfected H4 cells expressing APP, approximately 16 hours incubation
[6] = Homo sapiens, 16 h, transfected H4 cells stably expressing APP constructs, approximately 16 hours incubation
[7] = Homo sapiens, 16 h, transfected H4 cells stably expressing APP, approximately 16 hours incubation
[8] = Homo sapiens, 16 h, transfected H4 cells stably expressing APP, approx. 16 h incubation

`CN1C2CCC1[C@@H](COc1ccccc1CN(c1ccccc1)S(=O)(=O)c1ccc(Cl)cc1)C2` (stereo partly drawn) [Example 300, 4-Chloro-N-(2-{[(2S)-7-methyl-7-azabicyclo[2.2.1]hept-2-yl]methoxy]benzyl)-N-phenylbenzenesulfonamide Hydrochloride] gave an IC50 [1] of 50 to 100 nM.

Work on “(2E)-N-{2-[2-(1-{[(4-chlorophenyl)sulfonyl]-2,5-difluoroanilino}ethyl)phenoxy]ethyl}-N-ethyl-2-butenamide [Example 649]” yielded an IC50 [2] of 100 to 500 nM.

“2-((1R)-1-{[(4-chlorophenyl)sulfonyl]-2,5-difluoroanilino}ethyl)benzyl 3,4-difluorobenzylcarbamate [Example 961]” was tested, and the IC50 [3] was over 500 nM.

For `C[C@H](COC(=O)NCCCn1ccnc1)N(c1cc(F)ccc1F)S(=O)(=O)c1ccc(Cl)cc1` [Example 1239, 4-Chloro-N-(2,5-difluorophenyl)-N-[2-[[N′-[3-(1H-imidazol-1-yl)propylamino]carbonyl]oxy]-(R)-1-methylethyl]benzenesulfonamide], the IC50 [4] was at most 25 nM.

Work on `O=S(=O)(c1ccc(Cl)cc1)N(Cc1ccccc1OCCCN1CCCCC1)[C@H]1CC2CCC1C2` (stereo partly drawn) [Example 969, N-{(2S)-bicyclo[2.2.1]hept-2-yl]-4-chloro-N-{2-[3-(1-piperidinyl)propoxy]benzyl}benzenesulfonamide hydrochloride] yielded an IC50 [3] of over 500 nM.

With `C[C@H](C(=O)NCc1cccc(I)c1)N(c1cc(Cl)ccc1F)S(=O)(=O)c1ccc(Cl)cc1` [Example 1330] the IC50 [5] was over 500 nM.

`CC(c1ccccc1OCCN(C)C(=O)C(F)(F)C(F)(F)C(F)(F)F)N(c1cc(F)ccc1F)S(=O)(=O)c1ccc(Cl)cc1` (centres unmarked) [Example 796, N-{2-[2-(1-{[(4-chlorophenyl)sulfonyl]-2,5-difluoroanilino}ethyl)phenoxy]ethyl}-2,2,3,3,4,4,4-heptafluoro-N-methylbutanamide] showed an IC50 [2] of 100 to 500 nM.

In the case of `CC(c1ccccc1OCCCN(C)C(=O)c1cccnc1)N(c1cc(F)ccc1F)S(=O)(=O)c1ccc(Cl)cc1` (centres unmarked) [Example 360, N-{3-[2-(1-{[(4-chlorophenyl)sulfonyl]-2,5-difluoroanilino}ethyl)phenoxy]propyl}-N-methylnicotinamide], the IC50 [1] is reported as 50 to 100 nM.

For `CC(CCCN=[N+]=[N-])N(c1cc(Cl)ccc1Cl)S(=O)(=O)c1ccc(Cl)cc1` (centres unmarked) [Example 1138, 4-chloro-N-(2,5-dichlorophenyl)-N-[4-(azido)-1-methylbutyl]benzenesulfonamide], the IC50 [6] was 100 to 500 nM.

`O=S(=O)(c1ccc(Cl)cc1)N(Cc1ccncc1)Cc1ccccc1OCCCN1CCCCC1` [Example 967, 4-chloro-N-{2-[3-(1-piperidinyl)propoxy]benzyl}-N-(4-pyridinylmethyl)benzenesulfonamide hydrochloride] was tested, and the IC50 [7] was over 500 nM.

For `C[C@H](CCC[S+](C)[O-])N(c1cc(Cl)ccc1F)S(=O)(=O)c1ccc(Cl)cc1` (stereo partly drawn) [Example 1167, 4-chloro-N-[5-chloro-2-fluorophenyl]-N-[1(R)-methyl-(4-methylsulfinyl)butyl]benzenesulfonamide], the IC50 [4] was at most 25 nM.

`C[C@H](CCCS(=O)(=O)N1CCSCC1)N(c1cc(Cl)ccc1Cl)S(=O)(=O)c1ccc(Cl)cc1` [Example 1211, 4-chloro-N-[2,5-dichlorophenyl]-N-[4-[(4-thiomorpholinyl)sulfonyl]-1(R)-methylbutyl]benzenesulfonamide] gave an IC50 [6] of at most 25 nM.

`C[C@H](COC(=O)NCCCn1cnnn1)N(c1cc(Cl)ccc1F)S(=O)(=O)c1ccc(Cl)cc1` [Example 1294] gave an IC50 [5] of at most 25 nM.

`CN1CCCC1CCOc1ccccc1CN(c1ccccc1)S(=O)(=O)c1ccc(Cl)cc1` (centres unmarked) [Example 962, 4-chloro-N-{2-[2-(1-methyl-2-pyrrolidinyl)ethoxy]benzyl}-N-phenylbenzenesulfonamide hydrochloride] was tested, and the IC50 [7] was over 500 nM.

Compound `CCNC(=O)N(C)CCOc1ccccc1C(C)N(c1cc(F)ccc1F)S(=O)(=O)c1ccc(Cl)cc1` (centres unmarked) [Example 801, 4-chloro-N-(2,5-difluorophenyl)-N-[1-(2-{3-[[(ethylamino)carbonyl](methyl)amino]ethoxy}phenyl)ethyl]benzenesulfonamide] has an IC50 [2] of 100 to 500 nM.

`CC(C)[S+]([O-])CCC[C@@H](C)N(c1cc(Cl)ccc1CO)S(=O)(=O)c1ccc(Cl)cc1` (some centres unmarked) [Example 1219] was tested, and the IC50 [4] was at most 25 nM.

With `C[C@@H](Oc1ccc(Cl)cc1N(C)S(=O)(=O)c1ccc(Cl)cc1)c1ccc(F)cc1CCCC(=O)O` [Example 935, 4-[2-((1R)-1-{4-chloro-2-[[(4-chlorophenyl)sulfonyl](methyl)amino]phenoxy}ethyl)-5-fluorophenyl]butanoic acid] the IC50 [7] was over 500 nM.

`CCCC(C)N(Cc1ccccc1OCCCN1CCCCC1)S(=O)(=O)c1ccc(Cl)cc1` (centres unmarked) [Example 781, 4-chloro-N-(1-methylbutyl)-N-{2-[3-(1-piperidinyl)propoxy]benzyl}benzenesulfonamide hydrochloride] gave an IC50 [8] of 100 to 500 nM.

Work on `COC(=O)CCS(=O)(=O)Cc1cc(F)ccc1[C@@H](C)N(c1cc(F)ccc1F)S(=O)(=O)c1ccc(Cl)cc1` [Example 466, Methyl 3-{[2-((1R)-1-{[(4-chlorophenyl)sulfonyl]-2,5-difluoroanilino}ethyl)-5-fluorobenzyl]sulfonyl}propanoate] yielded an IC50 [1] of 50 to 100 nM.

Work on “2-((1R)-1-{[(4-chlorophenyl)sulfonyl]-2,5-difluoroanilino}ethyl)benzyl 2,5-difluorobenzylcarbamate [Example 639]” yielded an IC50 [2] of 100 to 500 nM.

With `CCSCCC[C@@H](C)N(c1cc(Cl)ccc1Cl)S(=O)(=O)c1ccc(Cl)cc1` [Example 1183, 4-chloro-N-[2,5-dichlorophenyl]-N-[1(R)-methyl-(4-ethylthio)butyl]benzenesulfonamide] the IC50 [4] was at most 25 nM.

With `C[C@H](CCCNC(=O)[C@@H](O)c1ccccc1)N(c1cc(Cl)ccc1Cl)S(=O)(=O)c1ccc(Cl)cc1` [Example 1124] the IC50 [4] was 50 to 100 nM.

`CC(C)NC(=O)N(C)CCCOc1ccccc1CN(c1cc(F)ccc1F)S(=O)(=O)c1ccc(Cl)cc1` [Example 734, 4-chloro-N-(2,5-difluorophenyl)-N-(2-{3-[[(isopropylamino)carbonyl](methyl)amino]propoxy}benzyl)benzenesulfonamide] gave an IC50 [8] of 100 to 500 nM.

In the case of `O=S(=O)(c1ccc(Cl)cc1)N(Cc1ccccc1OCCCN1CCC(CO)CC1)c1ccccc1` [Example 311, 4-Chloro-N-(2-{3-[4-(hydroxymethyl)-1-piperidinyl]propoxy}benzyl)-N-phenylbenzenesulfonamide Hydrochloride], the IC50 [1] is reported as 50 to 100 nM.

“5-[2-((1R)-1-{[(4-chlorophenyl)sulfonyl]-2,5-difluoroanilino}ethyl)-5-fluorophenyl]butanoic acid [Example 1070]” was tested, and the IC50 [3] was over 500 nM.

`C[C@H](COC(=O)NCCn1ccnc1)N(c1cc(Cl)ccc1CO)S(=O)(=O)c1ccc(Cl)cc1` [Example 1293] was tested, and the IC50 [5] was over 10000 nM.

`C[C@H](CCCS(=O)(=O)C(C)(C)C)N(c1cc(Cl)ccc1CO)S(=O)(=O)c1ccc(Cl)cc1` [Example 1218] showed an IC50 [4] of at most 25 nM.

“N-{3-[2-(1-{[(4-chlorophenyl)sulfonyl]-2,5-difluoroanilino}ethyl)phenoxy]propyl}-3-methoxy-N-methylbenzamide [Example 786]” gave an IC50 [2] of 100 to 500 nM.

Compound `O=S(=O)(c1ccc(Cl)cc1)N(Cc1ccccc1C#CCN1CCCCC1)c1cc(F)ccc1F` [Example 711, 4-chloro-N-(2,5-difluorophenyl)-N-{2-[3-(1-piperidinyl)-1-propynyl]benzyl}benzenesulfonamide hydrochloride] has an IC50 [8] of 100 to 500 nM.

“N-{3-[2-(1-{[(4-chlorophenyl)sulfonyl]-2,5-difluoroanilino}ethyl)phenoxy]propyl}-N-methyl-4-propylbenzamide [Example 656]” gave an IC50 [2] of 100 to 500 nM.

Work on “(2R)-2-{[(4-chlorophenyl)sulfonyl]-2,5-difluoroanilino}propanoic acid [Example 1013]” yielded an IC50 [3] of over 500 nM.

`CC(COc1ccccc1C(C)N(c1cc(F)ccc1F)S(=O)(=O)c1ccc(Cl)cc1)N(C)S(=O)(=O)c1ccc(Cl)cc1` (centres unmarked) [Example 885, 4-chloro-N-[1-(2-{2-[[(4-chlorophenyl)sulfonyl](methyl)amino]propoxy}phenyl)ethyl]-N-(2,5-difluorophenyl)benzenesulfonamide] was tested, and the IC50 [7] was over 500 nM.

`C[C@H]([C@@H](C)OC(=O)NCCCn1ccnc1)N(c1cc(Cl)ccc1CO)S(=O)(=O)c1ccc(Cl)cc1` [Example 1246, 4-Chloro-N-[5-chloro-2-(hydroxymethyl)phenyl]-N-[2-[[N′-[3-(1H-imidazol-1-yl)propylamino]carbonyl]oxy]-(1R)-(2R)-dimethylethyl]benzenesulfonamide] gave an IC50 [4] of at most 25 nM.

In the case of `C[C@H](C(=O)Nc1cc(Cl)ccc1O)N(c1cc(Cl)ccc1F)S(=O)(=O)c1ccc(Cl)cc1` [Example 1336], the IC50 [5] is reported as over 500 nM.

Work on `O=S(=O)(c1ccc(Cl)cc1)N(Cc1cc(Cl)ccc1OCCCN1CCC(O)CC1)c1ccccc1` [Example 309, 4-Chloro-N-{5-chloro-2-[3-(4-hydroxy-1-piperidinyl)propoxy]benzyl}-N-phenylbenzenesulfonamide Hydrochloride] yielded an IC50 [1] of 50 to 100 nM.
